# In patent US5985281A, “Chemical compounds” (Zeneca Limited, priority 1994, dated 1999):
# Numbering of substitutions follows the chain as printed. Names and notes keep the numbering of the source. Where two headings read alike, the source gives them in different places. Residues, ends and D or L forms follow the SMILES beside them.
# T1: BP-RNase (Bos taurus, UniProt P61823)
# T1 sequence (P61823 27-150): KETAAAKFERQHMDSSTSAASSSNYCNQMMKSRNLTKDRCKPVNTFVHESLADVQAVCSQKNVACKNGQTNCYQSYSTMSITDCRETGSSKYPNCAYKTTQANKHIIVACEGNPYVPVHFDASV
# B1: Rec. HP-RNase R4A:K6A: recombinant Arg4Ala,Lys6Ala human pancreatic ribonuclease (protein, UniProt P07998 29-156, looked up, variant R4A K6A)
# Ribonuclease pancreatic: KESAAAKFQRQHMDSDSSPSSSSTYCNQMMRRRNMTQGRCKPVNTFVHEPLVDVQNVCFQEKVTCKNGQGNCYKSNSSMHITDCRLTNGSRYPNCAYRTSPKERHIIVACEGSPYVPVHFDASVEDST
# B2: Rec. BP-RNase: recombinant bovine pancreatic ribonuclease (protein, UniProt P61823 27-150, looked up)
# Ribonuclease pancreatic: T1 sequence (P61823 27-150)
# B3: Lys66Glu BP-RNase: bovine Lys66Glu pancreatic ribonuclease (protein, UniProt P61823 27-150, looked up, variant K66E)
# Ribonuclease pancreatic: T1 sequence (P61823 27-150) with K66E
# B4: Native CPB: native human pancreatic carboxypeptidase B, recombinant (protein, UniProt P15086 111-417, looked up)
# Carboxypeptidase B: ATGHSYEKYNKWETIEAWTQQVATENPALISRSVIGTTFEGRAIYLLKVGKAGQNKPAIFMDCGFHAREWISPAFCQWFVREAVRTYGREIQVTELLDKLDFYVLPVLNIDGYIYTWTKSRFWRKTRSTHTGSSCIGTDPNRNFDAGWCEIGASRNPCDETYCGPAAESEKETKALADFIRNKLSSIKAYLTIHSYSQMMIYPYSYAYKLGENNAELNALAKATVKELASLHGTKYTYGPGATTIYPAAGGSDDWAYDQGIRYSFTFELRDTGRYGFLLPESQIRATCEETFLAIKYVASYVLEHLY
# B5: proHCPB: pro form of human pancreatic carboxypeptidase B expressed from COS cells (protein, UniProt P15086 16-417, looked up)
# pro-form: HHGGEHFEGEKVFRVNVEDENHINIIRELASTTQIDFWKPDSVTQIKPHSTVDFRVKAEDTVTVENVLKQNELQYKVLISNLRNVVEAQFDSRVRATGHSYEKYNKWETIEAWTQQVATENPALISRSVIGTTFEGRAIYLLKVGKAGQNKPAIFMDCGFHAREWISPAFCQWFVREAVRTYGREIQVTELLDKLDFYVLPVLNIDGYIYTWTKSRFWRKTRSTHTGSSCIGTDPNRNFDAGWCEIGASRNPCDETYCGPAAESEKETKALADFIRNKLSSIKAYLTIHSYSQMMIYPYSYAYKLGENNAELNALAKATVKELASLHGTKYTYGPGATTIYPAAGGSDDWAYDQGIRYSFTFELRDTGRYGFLLPESQIRATCEETFLAIKYVASYVLEHLY
# modifications: pro-form
# notes: pro form of human pancreatic carboxypeptidase B expressed from COS cells
# Tests used:
# [1] = test system: D253K mutant HCPB; assay: Determination of Km and kcat of D253K mutant HCPB with Hipp-Asp and Hipp-Glu; assay type: biochemical, human; conditions: for Km / kcat / kcat/Km: pH 7.5, 37° C.
# [2] = test system: Arg4Ala,Lys6Ala,Lys66Glu HP-RNase; assay type: biochemical, human; conditions: for kcat/Km: pH 7
# [3] = test system: HP-RNase; assay type: biochemical, human; conditions: pH 7
# [4] = test system: Lys66Glu BP-RNase; assay: Enzyme kinetics of prodrug analogues with mutant Lys66Glu bovine RNase; conditions: 25° C.
# [5] = test system: Lys66Glu BP-RNase; assay type: biochemical, bovine; conditions: for kcat/Km: pH 7.5
# [6] = test system: LoVo tumour; assay: Anti-tumour activity in LoVo xenografted mice; assay type: in vivo, athymic nude mice; conditions: conjugate 10-100 mg/kg iv, then prodrug 100-1000 mg/kg iv or ip; vs untreated, conjugate or prodrug alone
# Protocol: LoVo tumour cells (10^7) are injected subcutaneously into athymic nude mice. When the tumours are 4-5 mm in diameter the conjugate is administered iv at doses between 10-100 mg/kg. Following localisation of the conjugate to the tumours and allowing a suitable time interval for residual conjugate to clear from the bloodstream and normal tissues (1-4 days) the prodrug is administered either iv or ip to the mice in dose ranging between 100-1000 mg/kg.
# [7] = test system: LoVo colorectal tumour cells
# [8] = biological target: T1, BP-RNase; assay: Enzyme kinetics of RNase prodrug versus native bovine pancreatic RNase; assay type: biochemical; conditions: 37° C., pH 7.5
# [9] = biological target: C > p; assay: Kinetic characterisation of RNase enzymes with C>p as substrate at pH 7.0; assay type: biochemical; conditions: CpA and C>p as substrates
# Protocol: The kinetic characterisation was carried out using CpA and C>p as substrates (FIG. 16). The kinetic parameters Km, kcat, and kcat/Km were compared with the values obtained for commercial and recombinant bovine pancreatic RNase under the same assay conditions (see Tables).
# Kinetic parameters of the different enzymes for C > p as […]
# [10] = test system: C>p; assay: RNase activity of recombinant and Lys66Glu bovine RNase on hydrolysis of C>p (and CpA); assay type: biochemical
# [11] = Conversion of Hipp-Asp to hippuric acid by mutant and native human CPB (HPLC); assay type: biochemical; conditions: 0.5 mM Hipp-Asp, 4 μg enzyme, 5 h, 37° C., pH 7.5
# [12] = Conversion of Hipp-Arg to hippuric acid by mutant and native human CPB (HPLC); assay type: biochemical; conditions: 4 μg enzyme, 5 h, 37° C., pH 7.5
# [13] = Conversion of Hipp-Glu to hippuric acid by mutant and native human CPB (HPLC); assay type: biochemical; conditions: 0.5 mM Hipp-Glu, 4 μg enzyme, 5 h, 37° C., pH 7.5
# [14] = Enzymic activity of recombinant HCPB against Hipp-Arg (spectrophotometric); assay type: biochemical; conditions: Tris HCl pH 7.5
# Protocol: Purified human CPB, produced as described in Reference Example 20, was assayed for its ability to convert hippuryl-L-arginine (Hipp-Arg) to hippuric acid using a spectrophotometric assay.
# Km and Vmax values were calculated using the ENZFITTER™ software programme (Biosoft™, Perkin Elmer). Kcat was calculated form Vmax by dividing by the enzyme concentration in the reaction mixture.
# [15] = HCPB activity of COS cell supernatants against Hipp-Arg; assay type: biochemical; conditions: COS-7 supernatant (250 μl), 5 h assay
molecule,measurement,setting,value
"O=C(O)CC[C@H](NC(=O)CNC(=O)c1ccccc1)C(=O)O [Hipp-Glu, hippuryl-L-glutamic acid] (HELM PEPTIDE1{[O=C(c1ccccc1)[*:2]].G.E}$$$$V2.0)",kcat/Km compared to the Hipp-Asp substrate,[1]; Hipp-Glu vs Hipp-Asp,approximately 7 fold
same,Km,[1],5.3 mM
same,kcat,[1],3.8 s⁻¹
same,kcat/Km,[1],700 M⁻¹ s⁻¹
"Nc1ccn([C@@H]2O[C@H](CO)[C@H]3OP(=O)(O)O[C@H]32)c(=O)n1 [C > p, cytidine-2',3'-cyclic monophosphate, reference compound]",kcat/Km,[2],1.2
same,kcat/Km,[3],1.2
same,kcat/Km,[4],3.0 mM⁻¹ s⁻¹
same,kcat/Km,[5],3.0
"O=C(O)C[C@H](NC(=O)CNC(=O)c1ccccc1)C(=O)O [Hipp-Asp, hippuryl-L-aspartic acid] (HELM PEPTIDE1{[O=C(c1ccccc1)[*:2]].G.D}$$$$V2.0)",Km,[1],2.7 mM
same,kcat,[1],0.26 s⁻¹
same,kcat/Km,[1],100 M⁻¹ s⁻¹
CCCN(CCC)c1ccc(OP(=O)(O)O[C@H]2[C@@H](O)[C@H](n3ccc(=O)[nH]c3=O)O[C@@H]2CNC(=O)CN)cc1 [Reference Example 6],kcat/Km,[4],25(6) mM^-1 s^-1
CCCN(CCC)c1ccc(OP(=O)(O)O[C@H]2[C@@H](O)[C@H](n3ccc(N)nc3=O)O[C@@H]2CNC(=O)CN)cc1 [Reference Example 7],kcat/Km,[4],109(11) mM^-1 s^-1
"NCC(=O)NC[C@H]1O[C@@H](n2ccc(=O)[nH]c2=O)[C@H](O)[C@@H]1OP(=O)(O)Oc1ccc(N(CCCl)CCCl)cc1 [Example 3, O-[(2R,3S,4R,5R)-2-(2-aminoacetamidomethyl)-5-(2,4-dioxo-1,2,3,4-tetrahydropyrimidin-1-yl)-4-hydroxy-2,3,4,5-tetrahydrofuran-3-yl]O-[4-(bis[2-chloroethyl]amino)phenyl] hydrogen phosphate]",rate of hydrolysis compared with native enzyme,[2],much faster than the native enzyme
same,kcat/Km,[2],3.6
same,tumour growth with combination of conjugate and prodrug,[6],significantly slower
same,kcat/Km,[3],0.2
same,"cytotoxicity of prodrug with A5B7 F(ab')2-Arg4Ala,Lys6Ala,Lys66Glu HP-RNase conjugate",[7],comparable to that of the active drug
same,"cytotoxicity of prodrug with free Arg4Ala,Lys6Ala,Lys66Glu HP-RNase",[7],comparable to that of the active drug
same,fold less cytotoxic than the drug,[7]; human,approximately 30 fold
same,IC50,[7]; read-out: IC50 (inhibition of cell growth by 50%),~30 µM
same,kcat/Km,[8],370 M⁻¹ s⁻¹
same,rate of hydrolysis compared with native enzyme,[5],much faster than the native enzyme
same,kcat/Km,[5],18
B1,kinetic properties compared with homologous bovine counterpart,[9],not significantly different
B2,specific activity compared with the commercial enzyme,[10]; hydrolysis of CpA and C>p,equal specific activity to that of the commercial enzyme
B3,kinetic properties compared with commercial bovine enzyme,"[10]; C>p hydrolysis, pH 7.0",not significantly different to the commercial bovine enzyme
B4,"% conversion to Hippuric acid, Hipp-Asp",[11],0%
same,"% conversion to Hippuric acid, Hipp-Arg",[12],100%
same,"% conversion to Hippuric acid, Hipp-Glu",[13],0%
same,kcat,[14],65 s⁻¹
same,hydrolysis of Hipp-Arg substrate,[15]; LIPOFECTIN-only control 1.2%,61%
B5,hydrolysis of Hipp-Arg substrate after activation with trypsin,"[15]; trypsin 700 μg/ml, LIPOFECTIN-only control 30%",complete hydrolysis
